The text below walks through data of article PMC7077276 (Viruses, 2020).

Entries after “also recorded” stand apart in the source; their conditions may differ.

One data set relates to PK-15 cells. Briefly: Cytotoxicity assay (CCK8). It counts as cell-based, Porcine.
The subject of data set [1] is PCV2. Briefly: Infectivity assay (titer, immunoblotting, qPCR, IFA). It counts as cell-based, porcine circovirus type 2 (PCV2). As to conditions: for anti-infective (antiviral) effect on PCV2: PK-15 cells, MOI = 1.0.
In a further data set the target is T1, PCV2 dcapsid mutant D70A (Porcine circovirus 2, UniProt O56129, D70A).
T1 construct: hexahistidine (N); made in house; host or cells: Escherichia coli BL21 (DE3)
T1 sequence (O56129 42-233 D70A): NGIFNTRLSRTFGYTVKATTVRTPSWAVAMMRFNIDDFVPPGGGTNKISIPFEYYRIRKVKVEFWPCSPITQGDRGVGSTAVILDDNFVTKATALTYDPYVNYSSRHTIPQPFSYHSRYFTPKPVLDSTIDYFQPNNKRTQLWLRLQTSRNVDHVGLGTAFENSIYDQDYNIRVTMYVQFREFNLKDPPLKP
Briefly: Microscale thermophoresis assay (MST), dcapsid mutant D70A. It counts as binding, porcine circovirus type 2 (PCV2). To be noted: read-out: Kd between EGCG and capsid mutant D70A. On the technique in general: Microscale thermophoresis detects binding through changes in fluorescence in a small temperature gradient.

The subject of data set [2] is PCV2. Briefly: Time of addition and dilution experiment. It counts as cell-based, porcine circovirus type 2 (PCV2). To be noted: for inhibitory effect of post-infection treatment: immunoblotting at 72 hpi. A general note: A western blot detects proteins with antibodies after separation by electrophoresis.
For the next data set, the target named is T2, PCV2 dcapsid mutant R73A (Porcine circovirus 2, UniProt O56129, R73A).
T2 construct: hexahistidine (N); made in house; host or cells: Escherichia coli BL21 (DE3)
T2 sequence (O56129 42-233 R73A): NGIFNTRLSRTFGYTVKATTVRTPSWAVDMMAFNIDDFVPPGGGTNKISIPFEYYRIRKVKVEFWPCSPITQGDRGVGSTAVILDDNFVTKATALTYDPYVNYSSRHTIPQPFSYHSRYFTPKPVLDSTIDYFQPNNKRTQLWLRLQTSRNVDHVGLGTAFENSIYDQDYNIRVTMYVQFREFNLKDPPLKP
Briefly: Microscale thermophoresis assay (MST), dcapsid mutant R73A. It counts as binding, porcine circovirus type 2 (PCV2). To be noted: read-out: Kd between EGCG and capsid mutant R73A.

The target in another data set is T3, PCV2 dcapsid mutant D78A (Porcine circovirus 2, UniProt O56129, D78A).
T3 construct: hexahistidine (N); made in house; host or cells: Escherichia coli BL21 (DE3)
T3 sequence (O56129 42-233 D78A): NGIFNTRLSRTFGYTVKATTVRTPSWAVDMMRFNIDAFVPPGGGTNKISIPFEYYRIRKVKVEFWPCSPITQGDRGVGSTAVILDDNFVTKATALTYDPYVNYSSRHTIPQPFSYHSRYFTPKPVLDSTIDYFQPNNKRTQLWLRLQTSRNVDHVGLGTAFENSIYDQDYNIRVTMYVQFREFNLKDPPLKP
Briefly: Microscale thermophoresis assay (MST), dcapsid mutant D78A. It counts as binding, porcine circovirus type 2 (PCV2). As to conditions: read-out: Kd between EGCG and capsid mutant D78A.

The next data set deals with PCV2 virions. As to the kind of experiment: Binding assay of virions to PK-15 cells (qPCR, flow cytometry). To be noted: 100 μM, binding 1 h at 4 °C, MOI = 5.0. It counts as cell-based, porcine circovirus type 2 (PCV2).
The next data set concerns PCV2 mutant viruses. Briefly: Infectivity assay of rescued PCV2 mutant viruses. It counts as cell-based, porcine circovirus type 2 (PCV2). As to conditions: 100 μM, whole infective process, titers at 72 hpi.
In a further data set the target is T4, PCV2 dcapsid mutant N75A (Porcine circovirus 2, UniProt O56129, N75A).
T4 construct: hexahistidine (N); made in house; host or cells: Escherichia coli BL21 (DE3)
T4 sequence (O56129 42-233 N75A): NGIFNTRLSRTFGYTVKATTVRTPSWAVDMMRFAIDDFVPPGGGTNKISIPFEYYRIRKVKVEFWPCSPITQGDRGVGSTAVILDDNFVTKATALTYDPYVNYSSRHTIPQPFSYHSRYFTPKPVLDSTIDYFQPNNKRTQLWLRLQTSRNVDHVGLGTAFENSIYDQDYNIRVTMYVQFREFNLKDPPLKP
Briefly: Microscale thermophoresis assay (MST), dcapsid mutant N75A. It counts as binding, porcine circovirus type 2 (PCV2). To be noted: read-out: Kd between EGCG and capsid mutant N75A.

Data set [3] addresses T5, PCV2 capsid protein (dcapsid) (Porcine circovirus 2, UniProt O56129).
T5 construct: hexahistidine (N); made in house; host or cells: Escherichia coli BL21 (DE3)
As to the kind of experiment: Microscale thermophoresis assay (MST), wild-type dcapsid. It counts as binding, porcine circovirus type 2 (PCV2).

Another data set has as its target T6, PCV2 dcapsid mutant G54A (Porcine circovirus 2, UniProt O56129, G54A).
T6 construct: hexahistidine (N); made in house; host or cells: Escherichia coli BL21 (DE3)
Briefly: Microscale thermophoresis assay (MST), dcapsid mutant G54A. It counts as binding, porcine circovirus type 2 (PCV2). As to conditions: read-out: Kd between EGCG and capsid mutant G54A.

In a further data set the target is T7, PCV2 dcapsid mutant R51A (Porcine circovirus 2, UniProt O56129, R51A).
T7 construct: hexahistidine (N); made in house; host or cells: Escherichia coli BL21 (DE3)
T7 sequence (O56129 42-233 R51A): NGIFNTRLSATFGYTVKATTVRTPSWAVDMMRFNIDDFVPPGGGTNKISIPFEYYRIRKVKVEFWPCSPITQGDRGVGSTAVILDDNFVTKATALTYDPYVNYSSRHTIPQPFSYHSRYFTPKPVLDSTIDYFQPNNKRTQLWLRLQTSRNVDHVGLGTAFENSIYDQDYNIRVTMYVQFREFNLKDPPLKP
As to the kind of experiment: Microscale thermophoresis assay (MST), dcapsid mutant R51A. It counts as binding, porcine circovirus type 2 (PCV2). As to conditions: read-out: Kd between EGCG and capsid mutant R51A.

The target of data set [4] is T8, PCV2 dcapsid bound to Heparin-Sepharose (Porcine circovirus 2, UniProt O56129).
T8 construct: hexahistidine (N); made in house; host or cells: Escherichia coli BL21 (DE3)
T8 sequence (O56129 42-233): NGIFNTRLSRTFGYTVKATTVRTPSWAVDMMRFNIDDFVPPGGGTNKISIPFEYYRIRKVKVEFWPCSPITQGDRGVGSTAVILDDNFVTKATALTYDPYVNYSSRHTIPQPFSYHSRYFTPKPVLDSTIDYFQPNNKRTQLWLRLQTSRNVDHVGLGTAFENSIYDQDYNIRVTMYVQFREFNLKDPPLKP
Briefly: Heparin column chromatography (competitive elution of dcapsid). It counts as binding, porcine circovirus type 2 (PCV2).

For data set [5], the system named is PCV2 dcapsid mutants bound to heparin column. As to the kind of experiment: Heparin column chromatography of dcapsid mutants. It counts as binding, porcine circovirus type 2 (PCV2).

T5 sequence (O56129 42-233): as above
T6 sequence (O56129 42-233 G54A): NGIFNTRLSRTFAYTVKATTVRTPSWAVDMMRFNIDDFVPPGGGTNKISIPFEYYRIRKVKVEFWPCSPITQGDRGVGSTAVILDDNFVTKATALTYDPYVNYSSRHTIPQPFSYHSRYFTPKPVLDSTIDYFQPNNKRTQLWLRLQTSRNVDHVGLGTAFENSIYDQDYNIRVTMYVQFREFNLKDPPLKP

By Kd is commonly meant a measure of binding affinity in units of concentration. Regarding `O=C(O[C@@H]1Cc2c(O)cc(O)cc2O[C@@H]1c1cc(O)c(O)c(O)c1)c1cc(O)c(O)c(O)c1` [EGCG, Epigallocatechin gallate], the “cytotoxicity to PK-15 cells” value is on record as “did not generate significant cytotoxicity; also recorded: without causing significant toxicity” in the data set on PK-15 cells (100 μM, 24 h, 72 h and 120 h); “could produce cytotoxicity” with PK-15 cells (200 μM). Further, in the data set on PCV2 [1] (10 μM, 72 hpi), the “inhibitory effect of PCV2 infection (immunoblotting, qPCR)” value is “still detectable”. The “viral capsid protein expression (immunoblotting)” value in the data set on PCV2 [1] (100 μM, 72 hpi) is listed as “reduced level”. Moreover, the “viral genome copy number (qPCR)” value with PCV2 [1] (100 μM, 72 hpi) is reported as “reduction”. The “quantity of PCV2 infected cells (IFA)” value with PCV2 [1] (100 μM, MOI = 1.0, vs. without treatment) was “obviously lower”. In addition, the “anti-infective (antiviral) effect on PCV2” value in the data set on PCV2 [1] (100 μM) is reported as “exhibited an inhibitory effect”. Besides, the “virus titer of PCV2 infected cells” value in the data set on PCV2 [1] (100 μM, whole infective process, various time points, vs. without treatment) is “significant decrease”. Moreover, the Kd on PCV2 dcapsid mutant D70A came to 863.7 ± 7.23 µM; at PCV2 dcapsid mutant R73A, 971 ± 9.54 µM; at PCV2 dcapsid mutant D78A it was 1061 ± 8.08 µM; on PCV2 dcapsid mutant N75A it was 164 ± 5.29 µM; in data set [3], 98 ± 4.76 µM; on PCV2 dcapsid mutant G54A, 99.3 ± 9.29 µM. The Kd on PCV2 dcapsid mutant R51A amounted to 591 ± 5.57 µM. The “inhibitory effect of post-infection treatment” value in the data set with PCV2 [2] (100 μM for 4 h or 12 h after PCV2 infection) is given as “significant inhibitory effect could not be detected”; in the data set on PCV2 [2] (100 μM for 24 h after PCV2 infection), “only a slight effect”. The “inhibitory effect, pre-treated cells group” value in the data set with PCV2 [2] (cells pre-exposed 60 min at 37 °C, then infected, 72 hpi, immunoblotting, qPCR, titer) was “inhibitory effect could not be detected”. In addition, the “antiviral effect in dilution assay” value in the data set on PCV2 [2] (virions pretreated with 100 μM, diluted 10-fold before inoculation, immunoblotting, qPCR, titer) is listed as “antiviral effect could still be detected”. The “antiviral effect, pre-treated virions group” value in the data set with PCV2 [2] (virus premixed with 10 μM, 72 hpi) is on record as “non-sensitive”; in the data set on PCV2 [2] (virus premixed with 100 μM, 72 hpi), “prominent antiviral effect”. The “bound PCV2 particles (qRT-PCR)” value in the data set with PCV2 virions is on record as “decrease significantly”. For the same compound, the “proportion of PCV2-attached cells (flow cytometry)” value with PCV2 virions (untreated ~70%) is ~ 55%. Also, the “antiviral effect on PCV2 (D70A) and PCV2 (D78A)” value in the data set on PCV2 mutant viruses is “could not be detected”. Also, the “antiviral effect on PCV2 (G54A), PCV2 (N75A), PCV2 (WT) and PCV2 (A135A)” value in the data set with PCV2 mutant viruses is given as “could inhibit the infectivity”. Also, the “dcapsid protein fraction eluted from heparin column” value in data set [4] (competitor 0.05 mg/mL) is 42.33 ± 3.52%; in data set [4] (competitor 0.5 mg/mL), 90.00 ± 5.29%. Moreover, the “eluted level of R51A, D70A, R73A and D78A mutants” value in data set [5] (0.5 mg/mL EGCG, especially D70A and D78A) is “remarkably reduced”.

In the case of heparin [reference compound], the “eluted level of R51A and R73A mutants” value in data set [5] (0.5 mg/mL heparin) is “most significant eluted reduction”.

As for `Oc1cc(O)c2c(c1)O[C@H](c1ccc(O)c(O)c1)[C@H](O)C2` [EC, epicatechin, reference compound], the “anti-infective (antiviral) effect on PCV2” value in the data set on PCV2 [1] (100 μM) is on record as “no considerable anti-infective effect; also recorded: did not exert an antiviral effect”. The Kd in data set [3] is 951.3 ± 6.81 µM. The “lower affinity to capsid than EGCG” value in data set [3] (MST, ratio of Kd) is recorded as 10 fold. The “dcapsid protein fraction eluted from heparin column” value in data set [4] (competitor 0.05 mg/mL) is recorded as 10.33 ± 4.50%.
